Data taken from patent publication US7880007B2, “Bicyclic substituted phenyl piperidine modulators of muscarinic receptors” (Vertex Pharmaceuticals Incorporated, priority 2004, dated 2011).

Key:
Assay type in all cases: cell-based
M4 muscarinic receptor = molecular target: T1, M4 muscarinic receptor (Homo sapiens, UniProt P08173); test: Functional mobilization of intracellular calcium (FLIPR), M4-CHO cells; details: for Emax: 100% efficacy = maximum response obtained with the Carbachol control; for M4 Activity: M4-CHO cells, calcium mobilization (FLIPR)
T1 construct: expressed in transfected cells; host or cells: CHO (M4-CHO)
T1 sequence (P08173 1-479): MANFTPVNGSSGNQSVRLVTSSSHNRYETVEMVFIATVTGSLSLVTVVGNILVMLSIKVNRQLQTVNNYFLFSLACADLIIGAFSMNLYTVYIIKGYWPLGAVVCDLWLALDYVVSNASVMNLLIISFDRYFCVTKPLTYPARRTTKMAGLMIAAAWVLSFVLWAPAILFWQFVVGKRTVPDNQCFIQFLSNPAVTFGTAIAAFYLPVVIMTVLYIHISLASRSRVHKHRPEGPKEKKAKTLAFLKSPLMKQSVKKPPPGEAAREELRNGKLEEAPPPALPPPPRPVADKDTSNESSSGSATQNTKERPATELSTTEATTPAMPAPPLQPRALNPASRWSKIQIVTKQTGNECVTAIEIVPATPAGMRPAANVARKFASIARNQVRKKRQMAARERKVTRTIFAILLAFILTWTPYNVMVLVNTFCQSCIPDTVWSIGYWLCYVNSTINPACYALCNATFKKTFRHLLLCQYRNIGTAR
Experimental: (§1) Functional Mobilization of Intracellular Calcium to Determine Muscarinic Receptor Activity:
(§2) CHO cells expressing muscarinic receptors (M1 to M5) are grown as monolayers in tissue culture flasks at 37° C. in a humidified atmosphere containing 5% CO2 and passaged every 3-5 days. The growth media is Dulbecco's modified eagles medium (DMEM, Gibco Cat #12430-054), containing 25 mM Hepes and supplemented with Fetal Bovine Serum (Hyclone, cat #SH30071.03), 0.1 mM of MEM non-essential amino acids (GIBCO, Cat #11140-050), 1 mM MEM Sodium Pyruvate (GIBCO Cat #11360-070) and 100 units/ml of Penicillin G and 100 μg/ml of Streptomycin (GIBCO Cat #15140-122). The recombinant muscarinic receptor cell lines are grown under antibiotic pressure with media containing 25 μg/ml zeocin and 500 μg/ml G418 (M1-CHO), 4 μg/ml puromycin, 50 μg/ml zeocin and 2.5 μg/ml blasticidin (M2 and M4-CHO) or 50 μg/ml zeocin and 4 μg/ml puromycin (M3 and M5-CHO).
(§3) Cells are harvested at 80-90% confluence using Versene (GIBCO Cat #15040-066), collected by centrifugation and seeded 18-24 hrs prior to running the calcium assay at a density of 5,000-10,000 cells/well in […], clear-bottomed 384-well plates (BD Biocoat, poly-D-lysine, Cat #356663). The day of the experiment, the cells are washed with a plate washer (Bioteck Instruments, ELX 405) using bath 1 buffer (140-mM NaCl, 4.5-mM KCl, 2-mM CaCl2, 1-mM MgCl2, 10-mM Hepes-Na, 10-mM Glucose, pH 7.4, with NaOH) containing 1 mM Probenecid. Next, the calcium dye Fluo-3 (25 μl/well of Fluo-3 AM at 4 μM, Molecular Probes F-1241, in Bath 1 buffer containing 1 mM Probenecid) is added to the 25 μl of Bath 1 remaining in each well after the plate wash and the dye is loaded at 37° C. in the tissue culture incubator for 60-90 min. The fluorescent dye is removed using the plate washer with Bath 1 containing 1 mM Probenecid, leaving 25 μl/well of this solution after the wash. Alternatively, cells can be loaded with the calcium indicator from Molecular Devices (Calcium 3 Assay Reagents, Cat #R7181) adding 5 μl of a 5× solution dye in Bath 1 containing 1 mM Probenecid (10 ml per dye flask cat #R7182 to generate a solution 20×) to 20 μl of the same buffer. After loading for 60 min, the experiment can be run without having to remove the dye.
(§4) Compounds are prepared at a 2× fold concentration in a 96-well plate (round bottom, Costar Corning cat #3656), by reconstituting the pre-spotted compounds in bath 1 containing 1 mM probenecid. The final concentration DMSO is 0.5%, and the amount of DMSO is normalized across the assay plate. To determine an agonist action of the compounds on muscarinic receptors, the reconstituted compounds are added (25 μl compound/well) to the cell assay plate (containing 25 μl/well) using the multi-channel robotic system of the FLIPR 3 Instrument (Molecular Devices, Sunnyvale, Calif.). To determine a functional inhibitory action of the compounds on muscarinic receptors, the reconstituted compounds are added (25 μl compound/well) to the assay plate and pre-incubated for 15 min prior to adding 25 μl of Carbachol at 3× the EC80 for each muscarinic subtype. Alternatively, the compounds can be co-applied simultaneously with the agonist. In both assay modes, the fluorescence is recorded for 60 sec (excitation wavelength is […] and emission wavelength 540 nm) using the FLIPR 3 instrument.
(§5) The potency, efficacy and selectivity of the muscarinic compounds were evaluated by screening the compound activity across the whole family (M1 to M5 cells). Compounds were also screened for activity on other proteins such as other GPCRs and ion channels to determine selectivity on M4 receptors.
(§6) Examples of activities and efficacies of the muscarinic compounds of formulae (I, Ia, Ib, and II) on modulating M1, M2, M3 and M4 receptors are shown below in Table 3. […]

M2 muscarinic receptor = molecular target: T2, M2 muscarinic receptor (Homo sapiens, UniProt P08172); test: Functional mobilization of intracellular calcium (FLIPR), M2-CHO cells; details: for Emax: 100% efficacy = maximum response obtained with the Carbachol control; for M2 Activity: M2-CHO cells, calcium mobilization (FLIPR)
T2 construct: expressed in transfected cells; host or cells: CHO (M2-CHO)
T2 sequence (P08172 1-466): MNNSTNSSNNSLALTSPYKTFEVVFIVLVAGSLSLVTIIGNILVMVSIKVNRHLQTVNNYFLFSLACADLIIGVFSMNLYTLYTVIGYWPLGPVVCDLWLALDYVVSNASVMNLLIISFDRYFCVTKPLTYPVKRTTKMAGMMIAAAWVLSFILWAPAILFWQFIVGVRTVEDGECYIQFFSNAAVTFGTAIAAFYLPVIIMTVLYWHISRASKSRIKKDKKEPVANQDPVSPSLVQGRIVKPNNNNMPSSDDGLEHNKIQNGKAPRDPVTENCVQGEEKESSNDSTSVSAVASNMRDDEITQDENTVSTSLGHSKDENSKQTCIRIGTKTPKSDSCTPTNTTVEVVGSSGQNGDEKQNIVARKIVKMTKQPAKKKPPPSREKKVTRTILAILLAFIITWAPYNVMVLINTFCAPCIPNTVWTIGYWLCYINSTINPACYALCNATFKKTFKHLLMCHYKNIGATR
Experimental: as §1, §2, §3, §4, §5, §6

M1 muscarinic receptor = molecular target: T3, M1 muscarinic receptor (Homo sapiens, UniProt P11229); test: Functional mobilization of intracellular calcium (FLIPR), M1-CHO cells; details: for Emax: 100% efficacy = maximum response obtained with the Carbachol control; for M1 Activity: M1-CHO cells, calcium mobilization (FLIPR)
T3 construct: expressed in transfected cells; host or cells: CHO (M1-CHO)
T3 sequence (P11229 1-460): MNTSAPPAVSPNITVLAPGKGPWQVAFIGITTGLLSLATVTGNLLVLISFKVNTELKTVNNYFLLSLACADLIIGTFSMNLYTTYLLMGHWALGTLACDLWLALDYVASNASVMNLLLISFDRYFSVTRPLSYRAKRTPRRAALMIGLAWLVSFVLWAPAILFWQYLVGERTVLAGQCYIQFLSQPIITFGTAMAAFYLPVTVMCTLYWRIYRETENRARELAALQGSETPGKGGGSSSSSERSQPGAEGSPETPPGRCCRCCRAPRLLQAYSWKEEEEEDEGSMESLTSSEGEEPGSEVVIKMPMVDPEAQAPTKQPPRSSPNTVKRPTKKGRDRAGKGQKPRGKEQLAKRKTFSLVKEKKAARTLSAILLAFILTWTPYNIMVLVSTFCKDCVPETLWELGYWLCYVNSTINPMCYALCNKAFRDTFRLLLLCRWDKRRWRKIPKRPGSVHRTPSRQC
Experimental: as §1, §2, §3, §4, §5, §6

Row | SMILES | Emax (M4 muscarinic receptor) | M4 Activity (M4 muscarinic receptor) | Emax (M2 muscarinic receptor) | M2 Activity (M2 muscarinic receptor) | Emax (M1 muscarinic receptor) | M1 Activity (M1 muscarinic receptor)
1 | CCOC(=O)N1C2CCC1CC(CN1CCC(c3ccccc3OC)CC1)C2 (stereo not drawn) [Compound 20] | 25 to 100% | +++ (activity was measured to be less than 1.0 μM) | < 25% | + (activity was measured to be greater than 5.0 μM) | 25 to 100% | +++ (activity was measured to be less than 1.0 μM)
2 | COc1ccccc1C1CCN(CC2CC3CCC(C3)C2)CC1 (stereo not drawn) [Compound 28] | < 25% | + (activity was measured to be greater than 5.0 μM) | < 25% | + (activity was measured to be greater than 5.0 μM) | < 25% | + (activity was measured to be greater than 5.0 μM)
3 | CCOC(=O)N1CCC(N2CCC(OC)(c3cc(Cl)ccc3OC)CC2)CC1 [Compound 55] | 25 to 100% | +++ (activity was measured to be less than 1.0 μM) | < 25% | + (activity was measured to be greater than 5.0 μM) | 25 to 100% | +++ (activity was measured to be less than 1.0 μM)
4 | COc1ccccc1C1CCN(CC2CCC3CCC2C3)CC1 (stereo not drawn) [Compound 61] | 25 to 100% | ++ (activity was measured to be from 1.0 μM to 5.0 μM) | < 25% | + (activity was measured to be greater than 5.0 μM) | < 25% | + (activity was measured to be greater than 5.0 μM)
5 | COc1ccc(Cl)cc1C1(O)CCN(C2CC3CCC2C3)CC1 (stereo not drawn) [Compound 63] | 25 to 100% | + (activity was measured to be greater than 5.0 μM) | < 25% | + (activity was measured to be greater than 5.0 μM) | < 25% | + (activity was measured to be greater than 5.0 μM)
6 | COc1ccc(NC(C)=O)cc1C1CCN(C2C[C@H]3CC[C@H](C2)C3)CC1 (stereo partly drawn) [Compound 75] | 25 to 100% | ++ (activity was measured to be from 1.0 μM to 5.0 μM) | < 25% | + (activity was measured to be greater than 5.0 μM) | < 25% | + (activity was measured to be greater than 5.0 μM)
7 | COc1ccc(Cl)cc1C1(OC)CCN(C2CCC3CCC2C3)CC1 (stereo not drawn) [Compound 80] | 25 to 100% | +++ (activity was measured to be less than 1.0 μM) | < 25% | ++ (activity was measured to be from 1.0 μM to 5.0 μM) | 25 to 100% | ++ (activity was measured to be from 1.0 μM to 5.0 μM)
8 | Cc1ccc(F)cc1C1CCN([C@H]2CC[C@H]3CC[C@H]2C3)CC1 [Compound 81] | 25 to 100% | ++ (activity was measured to be from 1.0 μM to 5.0 μM) | 25 to 100% | + (activity was measured to be greater than 5.0 μM) | 25 to 100% | + (activity was measured to be greater than 5.0 μM)
9 | COc1ccc(Cl)cc1C1CCN(CC2CCCCC2)CC1 [Compound 91] | 25 to 100% | ++ (activity was measured to be from 1.0 μM to 5.0 μM) | < 25% | + (activity was measured to be greater than 5.0 μM) | < 25% | ++ (activity was measured to be from 1.0 μM to 5.0 μM)
10 | CCOC(=O)N1C2CCC1CC(N1CCC(O)(c3cc(F)ccc3C)CC1)C2 (stereo not drawn) [Compound 95] | 25 to 100% | +++ (activity was measured to be less than 1.0 μM) | < 25% | + (activity was measured to be greater than 5.0 μM) | 25 to 100% | +++ (activity was measured to be less than 1.0 μM)
11 | Cc1ccc(Cl)cc1C1CCN(C2CC[C@H]3CC[C@H]2C3)CC1 (stereo partly drawn) [Compound 96] | 25 to 100% | +++ (activity was measured to be less than 1.0 μM) | 25 to 100% | ++ (activity was measured to be from 1.0 μM to 5.0 μM) | 25 to 100% | +++ (activity was measured to be less than 1.0 μM)
12 | COc1ccc(Cl)cc1C1(O)CCN(C2CCCCC2)CC1 [Compound 99] | 25 to 100% | ++ (activity was measured to be from 1.0 μM to 5.0 μM) | < 25% | + (activity was measured to be greater than 5.0 μM) | < 25% | + (activity was measured to be greater than 5.0 μM)
13 | COc1ccc(Cl)cc1C1(OC)CCN(C2CCCCCC2)CC1 [Compound 101] | 25 to 100% | +++ (activity was measured to be less than 1.0 μM) | < 25% | + (activity was measured to be greater than 5.0 μM) | 25 to 100% | ++ (activity was measured to be from 1.0 μM to 5.0 μM)
